# Source: patent US20070061917A1, “Methods and compositions for the expression of a polynucleotide of interest” (Pioneer Hi-Bred International, Inc., priority 2005, published 2007)
# Tests used:
# [1] = tested on: infected GS3 embryos with the GAT construct; assay: Glyphosate response of embryos infected with the GAT construct; type: cell-based, maize; conditions: about 40 days culture
# Description: (§1) A glyphosate kill curve was established by testing non-transformed embryos response on media with different levels of glyphosate. GS3 embryos were isolated from an immature ear and placed onto media containing glyphosate at 0.0, 0.5, 1.0, and 2.0 mM. After about 40 days culture, the response of the embryos were observed and recorded. Similarly, infected GS3 embryos with the GAT construct were placed onto media containing glyphosate at 0.0, 0.5, 1.0, and 2.0 mM. After about 40 days culture, the response of the infected embryos were observed and recorded (FIG. 7).
# (§2) Western or PCR analysis has confirmed that these resistant calli were transformed. Currently, GAT has performed consistently as an effective selectable marker with excellent transformation efficiency in both GS3 and introEF09B genotypes (FIG. 9 and Table 1).
# [2] = tested on: non-transformed GS3 embryos; assay: Glyphosate kill curve on non-transformed embryos; type: cell-based, maize; conditions: about 40 days culture
# Description: as §1, §2
structure (smiles),measurement,setting,value
O=C(O)CNCP(=O)(O)O [glyphosate],embryo callus response,[1]; 0.5 mM glyphosate in medium,more callus was grown
same,embryo callus response,[1]; 1.0 mM glyphosate in medium,some embryos initiated resistant callus
same,embryo callus response,[1]; 2.0 mM glyphosate in medium,some embryos initiated resistant callus
same,embryo callus response,[2]; 0.5 mM glyphosate in medium,about half of the embryos
same,embryo callus response,[2]; 1.0 mM glyphosate in medium,very little callus growth
same,embryo callus response,[2]; 2.0 mM glyphosate in medium,very little callus growth
